Reference: article PMC6478789, “A chemical toolbox for the study of bromodomains and epigenetic signaling” (Nature Communications, 2019)
Like-named read-outs stand apart in the source and are kept apart here.

Experiments:
[1] = target: BRPF2; conditions: ITC data; ref 11 (suppl.); cited from earlier work
[2] = target: T1, ATAD2A (Homo sapiens, UniProt Q6PL18); assay: BROMOscan ligand-binding assay; conditions: read-out: KD (BROMOscan); sheet prints no unit (nM)
T1 sequence (Q6PL18 980-1092 limits assumed): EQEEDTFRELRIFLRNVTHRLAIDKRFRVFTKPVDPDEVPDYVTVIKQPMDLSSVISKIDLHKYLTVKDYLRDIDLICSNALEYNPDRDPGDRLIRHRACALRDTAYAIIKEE
From the text: (§2) BROMOscan is a binding assay based on the well-known KINOMEscan technology. This assay measures the binding of a DNA-tagged bromodomain to an immobilized BRD ligand. If an inhibitor is present, it will compete with the bromodomain binding to the immobilized ligand, resulting in reduction of a quantitative PCR (qPCR) signal in a dose-dependent manner.

[3] = target: T2, BAZ2B (Homo sapiens, UniProt Q9UIF8); assay: BROMOscan ligand-binding assay; conditions: read-out: KD (BROMOscan); sheet prints no unit (nM)
T2 sequence (Q9UIF8 2060-2164 limits assumed): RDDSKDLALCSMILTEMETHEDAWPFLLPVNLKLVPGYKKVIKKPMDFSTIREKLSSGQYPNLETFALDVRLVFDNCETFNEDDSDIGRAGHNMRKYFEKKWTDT
From the text: as §2

[4] = target: T3, HAT1 (Homo sapiens, UniProt O14929); assay: Histone acetyltransferase (HAT) activity assay; type: biochemical;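 note: HAT selectivity screen of BRD probe compounds, enzyme activity in % measured with compound at 1 µM and 10 µM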
T3 sequence (O14929 1-419): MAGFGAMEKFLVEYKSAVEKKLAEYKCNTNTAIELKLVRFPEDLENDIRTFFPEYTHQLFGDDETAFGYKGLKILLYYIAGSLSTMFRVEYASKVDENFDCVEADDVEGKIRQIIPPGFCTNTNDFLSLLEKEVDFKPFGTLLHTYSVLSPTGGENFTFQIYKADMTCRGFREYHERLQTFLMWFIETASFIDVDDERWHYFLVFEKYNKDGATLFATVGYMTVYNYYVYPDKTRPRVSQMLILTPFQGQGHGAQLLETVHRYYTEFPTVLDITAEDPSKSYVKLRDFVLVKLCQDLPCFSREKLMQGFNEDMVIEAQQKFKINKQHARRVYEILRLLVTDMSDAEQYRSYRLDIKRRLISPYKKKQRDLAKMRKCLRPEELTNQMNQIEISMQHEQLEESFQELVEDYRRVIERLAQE

[5] = target: BRD3(1,2) (Homo sapiens, UniProt Q15059); assay: BROMOscan ligand-binding assay; conditions: read-out: KD (BROMOscan); sheet prints no unit (nM)
From the text: as §2

[6] = target: T4, ATAD2B (Homo sapiens, UniProt Q9ULI0); assay: BROMOscan ligand-binding assay; conditions: read-out: KD (BROMOscan); sheet prints no unit (nM)
T4 sequence (Q9ULI0 951-1066 limits assumed): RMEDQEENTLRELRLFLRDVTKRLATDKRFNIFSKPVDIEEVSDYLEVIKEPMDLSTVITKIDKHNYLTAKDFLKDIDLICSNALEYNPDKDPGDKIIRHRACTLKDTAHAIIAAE
From the text: as §2

[7] = target: T5, BRD2(1) (Homo sapiens, UniProt P25440); assay: BROMOscan ligand-binding assay; conditions: read-out: KD (BROMOscan); sheet prints no unit (nM)
From the text: as §2

[8] = target: BRPF1B; conditions: ITC data; ref 11 (suppl.); cited from earlier work
[9] = target: GCN5L2 (Homo sapiens, UniProt Q92830); assay: Histone acetyltransferase (HAT) activity assay; type: biochemical;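 note: selectivity screen of BRD probe compounds across a panel of histone acetyltransferases, HAT activity in % with compound at 1 or 10 µM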
[10] = target: BRD2(1,2) (Homo sapiens, UniProt P25440); assay: BROMOscan ligand-binding assay; conditions: read-out: KD (BROMOscan); sheet prints no unit (nM)
From the text: as §2

[11] = target: BRD9; conditions: ITC data; ref 11 (suppl.); read-out: KD (nM), off target BRD9; cited from earlier work
[12] = target: MYST3 (Homo sapiens, UniProt Q92794); assay: Histone acetyltransferase (HAT) activity assay; type: biochemical;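 note: selectivity screen of bromodomain probe compounds across a panel of histone acetyltransferases, read out as enzyme activity in %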
[13] = target: T6, BRD2(2) (Homo sapiens, UniProt P25440); assay: BROMOscan ligand-binding assay; conditions: read-out: KD (BROMOscan); sheet prints no unit (nM)
From the text: as §2

[14] = target: EP300 (Homo sapiens, UniProt Q09472); assay: Histone acetyltransferase (HAT) activity assay; type: biochemical;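 note: selectivity screen of bromodomain probe compounds against histone acetyltransferases, with enzyme activity given in percent for compounds tested at 1 and 10 µM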
[15] = target: BRD4(1,2) (Homo sapiens, UniProt O60885); assay: BROMOscan ligand-binding assay; conditions: read-out: KD (BROMOscan); sheet prints no unit (nM)
From the text: as §2

[16] = target: T7, TAF1(2) (Homo sapiens, UniProt P21675); assay: BROMOscan ligand-binding assay; conditions: read-out: KD (BROMOscan); sheet prints no unit (nM)
T7 sequence (P21675 1519-1628 limits assumed): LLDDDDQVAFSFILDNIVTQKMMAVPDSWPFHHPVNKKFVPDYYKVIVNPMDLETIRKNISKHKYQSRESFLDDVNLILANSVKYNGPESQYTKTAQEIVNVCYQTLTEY
From the text: as §2

[17] = target: T8, BRD3(2) (Homo sapiens, UniProt Q15059); assay: BROMOscan ligand-binding assay; conditions: read-out: KD (BROMOscan); sheet prints no unit (nM)
From the text: as §2

[18] = target: T9, BRD1 (Homo sapiens, UniProt O95696); assay: BROMOscan ligand-binding assay; conditions: read-out: KD (BROMOscan); sheet prints no unit (nM)
T9 sequence (O95696 562-666 limits assumed): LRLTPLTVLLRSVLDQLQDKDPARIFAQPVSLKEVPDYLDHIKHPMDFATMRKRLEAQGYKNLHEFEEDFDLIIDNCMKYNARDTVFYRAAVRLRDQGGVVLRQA
From the text: as §2

[19] = target: BRD4(2) (Homo sapiens, UniProt O60885); assay: BROMOscan ligand-binding assay; conditions: read-out: KD (BROMOscan); sheet prints no unit (nM)
From the text: as §2

[20] = target: T10, BRD3(1) (Homo sapiens, UniProt Q15059); assay: BROMOscan ligand-binding assay; conditions: read-out: KD (BROMOscan); sheet prints no unit (nM)
From the text: as §2

[21] = target: BRD4(1) (Homo sapiens, UniProt O60885); assay: BROMOscan ligand-binding assay; conditions: read-out: KD (BROMOscan); sheet prints no unit (nM)
From the text: as §2

[22] = system: MDA-MB-436 cells; assay: Confluency with BRPF inhibitors and BAY-876; type: cell-based, human; conditions: 3 μM, 7 days
Method: Graph indicates mean, error bars denote s.d. from eight wells (from two independent assays) and p-value was computed using the Benjamini-Hochberg t test; ***p < 0.001. d Immunoblot validation of BRPF knockdown in MDA-MB-436 cells. e Quantitative real-time PCR (RT-qPCR) validation of BRPF knockdown in MDA-MB-436 cells. […] Raw data images are available in Supplementary Fig. 4
(§1) TNBC cell lines were seeded in sterile, transparent 384-well plates at 500 cells per well in 50 µl media. Chemical probes were delivered in dimethyl sulfoxide (DMSO). Cell confluency at 7 days was evaluated using an Incucyte ZOOM live cell imaging device (Essen Bioscence) and analyzed with the Incucyte ZOOM (2016A) software based on phase contrast image.

[23] = target: T11, MYST1 (Homo sapiens, UniProt Q9H7Z6); assay: Histone acetyltransferase (HAT) activity assay; type: biochemical;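 note: selectivity screen across a panel of histone acetyltransferases, with compounds tested at 1 and 10 µM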
T11 sequence (Q9H7Z6 1-458): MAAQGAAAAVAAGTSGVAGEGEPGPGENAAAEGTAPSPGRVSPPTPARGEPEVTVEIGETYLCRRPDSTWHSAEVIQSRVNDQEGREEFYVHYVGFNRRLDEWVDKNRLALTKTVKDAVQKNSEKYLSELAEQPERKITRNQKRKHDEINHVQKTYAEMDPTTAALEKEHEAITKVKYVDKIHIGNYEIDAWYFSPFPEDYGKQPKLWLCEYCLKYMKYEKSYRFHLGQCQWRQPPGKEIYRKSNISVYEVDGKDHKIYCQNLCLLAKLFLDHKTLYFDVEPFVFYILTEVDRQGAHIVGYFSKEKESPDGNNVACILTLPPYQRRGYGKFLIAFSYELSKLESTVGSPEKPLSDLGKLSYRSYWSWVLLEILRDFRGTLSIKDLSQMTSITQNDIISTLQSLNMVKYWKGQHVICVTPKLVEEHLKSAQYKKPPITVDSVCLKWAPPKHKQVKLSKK

[24] = target: BRDT(1) (Homo sapiens, UniProt Q58F21); set-up: purchased; conditions: ITC data; ref 7 (suppl.); cited from earlier work
[25] = system: ten TNBC cell lines; assay: High-throughput screening of bromodomain inhibitors in TNBC panel (confluency); type: cell-based, human; conditions: 3 μM, 7 days
Method: Fig. 6 BRD inhibitors leverage metabolic adaptations induced by glucose transporter I (GLUT1) inhibition in TNBC. a BRD inhibitor screening across ten TNBC cell lines. Cells were treated with indicated BRD inhibitors at 3 μM for 7 days. Confluency was measured using an IncuCyte ZOOM live cell imaging device. Data shown are mean ± s.d. of n = 4 independent cell culture grown and treated cells. A two-sided Student’s t test was used to derive the p-values. b SLC2A1 gene expression in the The Cancer Genome Atlas (TCGA) breast datasets. The cohorts were divided into TNBCs (red) and non-TNBCs (blue) according to PAM50 classification. Gene expression is reported as median-centered expression log2 values. The number of patients (n) per group is indicated. P-values were determined using a Wilcoxon's rank-sum test. c Glucose uptake in MDA-MB-436 cells in response to BAY-876 treatment relative to vehicle. MDA-MB-436 cells were treated with dimethyl sulfoxide (DMSO) or 3 µM BAY-876 for 5 days. […]
TNBC cell lines were seeded in sterile, transparent 384-well plates at 500 cells per well in 50 µl media. […] Cell confluency at 7 days was evaluated using an Incucyte ZOOM live cell imaging device (Essen Bioscence) and analyzed with the Incucyte ZOOM (2016A) software based on phase contrast image.

[26] = target: T5, BRD2(1); set-up: purchased; conditions: ITC data; ref 7 (suppl.); cited from earlier work
[27] = target: BRDT(2) (Homo sapiens, UniProt Q58F21); set-up: purchased; method as in ref 7 (suppl.); conditions: ITC data; ref 7 (suppl.); cited from earlier work
[28] = system: three TNBC lines; assay: Combinatorial screen of BRD inhibitors with or without BAY-876 (confluency); type: cell-based, human; conditions: 3 μM probe + 3 μM BAY-876
Method: Fig. 6 BRD inhibitors leverage metabolic adaptations induced by glucose transporter I (GLUT1) inhibition in TNBC. a BRD inhibitor screening across ten TNBC cell lines. Cells were treated with indicated BRD inhibitors at 3 μM for 7 days. Confluency was measured using an IncuCyte ZOOM live cell imaging device. Data shown are mean ± s.d. of n = 4 independent cell culture grown and treated cells. A two-sided Student’s t test was used to derive the p-values. b SLC2A1 gene expression in the The Cancer Genome Atlas (TCGA) breast datasets. The cohorts were divided into TNBCs (red) and non-TNBCs (blue) according to PAM50 classification. Gene expression is reported as median-centered expression log2 values. The number of patients (n) per group is indicated. P-values were determined using a Wilcoxon's rank-sum test. c Glucose uptake in MDA-MB-436 cells in response to BAY-876 treatment relative to vehicle. MDA-MB-436 cells were treated with dimethyl sulfoxide (DMSO) or 3 µM BAY-876 for 5 days. Graph indicates mean, error bars denote s.d. from three independent assays and p-value was computed using the Benjamini-Hochberg t test; ***p < 0.001. d Effects of BAY-876 treatment on the intracellular acetyl-CoA level. Graph indicates mean, error bars denote s.d. from three independent assays and p-value was computed using the Benjamini-Hochberg t test; ***p < 0.001. e Effects of BAY-876 treatment on intracellular NAD^+/NADH level. Graph indicates the mean, error bars denote s.d. from three independent assays and p-value computed using the Benjamini-Hochberg t test; **p < 0.01. f Immunoblot analysis of H3 and H4 acetylation in MDA-MB-436 cells before and after BAY-876 treatment. P-value computed using the Benjamini-Hochberg t test; ***p < 0.001. g Cell growth effects of BAY-876 treatment on three representative cell lines. n.s. not significant. h Combinatorial screening of BRD inhibitors with or without 3 μM BAY-876 across ten TNBC cell lines. Cell confluency was obtained from the endpoint Incucyte scanning. (Left) Heatmap of the combinatorial screening results; (Right) Cell confluency after treatment with three potential BRDi candidates at 3 μM in the presence or absence of 3 μM BAY-876 in three representative cell lines. Graph indicates mean, error bars denote s.d. from three independent assays and p-values were computed using the Benjamini-Hochberg t test; **p < 0.01; ***p < 0.001. Raw data images are available in Supplementary Fig. 4
as §1

[29] = target: T6, BRD2(2); set-up: purchased; method as in ref 7 (suppl.); conditions: ITC data; ref 7 (suppl.); cited from earlier work
[30] = target: T10, BRD3(1); set-up: purchased; conditions: ITC data; ref 7 (suppl.); cited from earlier work
[31] = target: T8, BRD3(2); set-up: purchased; conditions: ITC data; ref 7 (suppl.); cited from earlier work

Chain of MYST3 (Q92794 whole entry, species assumed): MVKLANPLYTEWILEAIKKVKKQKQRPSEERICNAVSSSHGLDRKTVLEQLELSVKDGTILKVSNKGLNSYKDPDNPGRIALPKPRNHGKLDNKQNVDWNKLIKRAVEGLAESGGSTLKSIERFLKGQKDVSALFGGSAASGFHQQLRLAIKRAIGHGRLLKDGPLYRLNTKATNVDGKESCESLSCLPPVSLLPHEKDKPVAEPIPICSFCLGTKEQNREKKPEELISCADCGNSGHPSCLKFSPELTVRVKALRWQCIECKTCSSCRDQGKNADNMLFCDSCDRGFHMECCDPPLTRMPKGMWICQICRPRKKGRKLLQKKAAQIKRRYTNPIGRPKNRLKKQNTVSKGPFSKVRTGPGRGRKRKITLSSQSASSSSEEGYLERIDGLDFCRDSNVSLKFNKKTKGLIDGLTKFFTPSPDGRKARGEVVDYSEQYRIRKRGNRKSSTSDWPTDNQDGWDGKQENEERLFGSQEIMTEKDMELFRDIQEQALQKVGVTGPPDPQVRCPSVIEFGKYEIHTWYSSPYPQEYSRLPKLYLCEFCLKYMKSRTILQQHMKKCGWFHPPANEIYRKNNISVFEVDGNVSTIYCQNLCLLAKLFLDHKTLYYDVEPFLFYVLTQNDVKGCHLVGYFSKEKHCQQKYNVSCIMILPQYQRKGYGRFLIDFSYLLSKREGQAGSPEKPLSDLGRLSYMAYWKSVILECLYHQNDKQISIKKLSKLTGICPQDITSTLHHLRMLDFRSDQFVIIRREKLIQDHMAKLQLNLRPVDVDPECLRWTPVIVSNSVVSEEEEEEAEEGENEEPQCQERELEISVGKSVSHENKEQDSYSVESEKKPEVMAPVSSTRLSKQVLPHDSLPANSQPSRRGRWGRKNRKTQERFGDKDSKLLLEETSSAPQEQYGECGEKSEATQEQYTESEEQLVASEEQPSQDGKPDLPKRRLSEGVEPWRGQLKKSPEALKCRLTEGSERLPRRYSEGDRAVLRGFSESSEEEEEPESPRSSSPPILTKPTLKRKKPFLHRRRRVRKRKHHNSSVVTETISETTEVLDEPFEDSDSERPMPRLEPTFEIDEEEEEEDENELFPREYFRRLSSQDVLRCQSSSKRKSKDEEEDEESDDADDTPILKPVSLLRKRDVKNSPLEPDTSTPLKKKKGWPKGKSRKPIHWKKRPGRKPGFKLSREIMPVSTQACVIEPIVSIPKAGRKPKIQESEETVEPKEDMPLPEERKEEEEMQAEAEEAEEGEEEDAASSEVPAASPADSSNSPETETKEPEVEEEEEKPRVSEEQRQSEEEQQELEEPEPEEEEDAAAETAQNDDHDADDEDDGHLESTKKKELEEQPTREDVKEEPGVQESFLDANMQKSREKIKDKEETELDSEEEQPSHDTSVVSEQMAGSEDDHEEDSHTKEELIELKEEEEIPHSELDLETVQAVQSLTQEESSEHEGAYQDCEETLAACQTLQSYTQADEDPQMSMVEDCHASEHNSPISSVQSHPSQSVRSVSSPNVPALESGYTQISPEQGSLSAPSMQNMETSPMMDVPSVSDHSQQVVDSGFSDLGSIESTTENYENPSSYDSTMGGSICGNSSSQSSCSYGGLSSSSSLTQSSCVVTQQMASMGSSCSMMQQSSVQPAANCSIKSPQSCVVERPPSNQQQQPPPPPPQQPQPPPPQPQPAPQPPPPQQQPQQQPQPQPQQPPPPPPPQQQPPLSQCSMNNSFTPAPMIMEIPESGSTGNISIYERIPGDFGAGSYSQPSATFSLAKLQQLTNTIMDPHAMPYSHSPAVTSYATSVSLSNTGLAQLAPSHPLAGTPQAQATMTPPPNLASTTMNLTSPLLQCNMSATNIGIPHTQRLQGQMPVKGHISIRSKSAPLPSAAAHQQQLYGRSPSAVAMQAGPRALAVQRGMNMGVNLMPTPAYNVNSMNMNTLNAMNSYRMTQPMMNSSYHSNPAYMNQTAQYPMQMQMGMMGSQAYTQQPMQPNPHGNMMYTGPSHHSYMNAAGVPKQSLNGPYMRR
Chain of GCN5L2 (Q92830 whole entry, species assumed): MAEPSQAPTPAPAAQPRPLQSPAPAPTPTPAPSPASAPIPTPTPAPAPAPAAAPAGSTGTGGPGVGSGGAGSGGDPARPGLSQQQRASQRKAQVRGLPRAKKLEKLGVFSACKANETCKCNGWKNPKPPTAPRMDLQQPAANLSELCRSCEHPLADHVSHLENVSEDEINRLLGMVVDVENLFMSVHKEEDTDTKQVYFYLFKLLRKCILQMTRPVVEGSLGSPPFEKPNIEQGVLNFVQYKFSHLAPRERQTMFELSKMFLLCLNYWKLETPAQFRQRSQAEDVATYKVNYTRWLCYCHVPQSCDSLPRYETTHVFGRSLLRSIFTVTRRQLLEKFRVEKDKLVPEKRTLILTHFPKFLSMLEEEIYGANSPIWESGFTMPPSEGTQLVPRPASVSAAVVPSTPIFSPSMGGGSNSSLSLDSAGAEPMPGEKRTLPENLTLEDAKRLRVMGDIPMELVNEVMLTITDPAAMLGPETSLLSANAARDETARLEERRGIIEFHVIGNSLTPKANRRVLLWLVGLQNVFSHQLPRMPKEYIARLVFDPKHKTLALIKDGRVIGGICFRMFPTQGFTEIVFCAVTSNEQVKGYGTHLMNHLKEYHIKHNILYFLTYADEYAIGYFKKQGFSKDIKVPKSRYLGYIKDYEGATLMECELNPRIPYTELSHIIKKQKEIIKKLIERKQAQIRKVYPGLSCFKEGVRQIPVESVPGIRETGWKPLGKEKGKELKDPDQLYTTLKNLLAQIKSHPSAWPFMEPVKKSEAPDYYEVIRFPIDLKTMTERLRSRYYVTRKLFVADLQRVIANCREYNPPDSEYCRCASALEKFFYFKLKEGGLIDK
T8 sequence (Q15059 306-415 limits assumed): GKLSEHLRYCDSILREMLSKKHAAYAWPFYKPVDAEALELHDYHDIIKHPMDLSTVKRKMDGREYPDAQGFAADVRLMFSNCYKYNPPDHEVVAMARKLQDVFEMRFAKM
T5 sequence (P25440 74-180 limits assumed): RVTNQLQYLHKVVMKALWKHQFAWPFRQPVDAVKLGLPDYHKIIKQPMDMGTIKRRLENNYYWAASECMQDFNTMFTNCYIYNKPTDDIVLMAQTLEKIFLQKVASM
T6 sequence (P25440 344-453 limits assumed): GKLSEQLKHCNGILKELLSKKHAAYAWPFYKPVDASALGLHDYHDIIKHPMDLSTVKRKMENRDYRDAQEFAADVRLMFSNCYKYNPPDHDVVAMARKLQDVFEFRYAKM
T10 sequence (Q15059 34-140 limits assumed): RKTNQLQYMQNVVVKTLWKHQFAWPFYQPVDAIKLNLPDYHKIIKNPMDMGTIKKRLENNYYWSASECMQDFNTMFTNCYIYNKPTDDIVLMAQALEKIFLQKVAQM
Chain of BRD2(1,2) (P25440 71-455 limits assumed): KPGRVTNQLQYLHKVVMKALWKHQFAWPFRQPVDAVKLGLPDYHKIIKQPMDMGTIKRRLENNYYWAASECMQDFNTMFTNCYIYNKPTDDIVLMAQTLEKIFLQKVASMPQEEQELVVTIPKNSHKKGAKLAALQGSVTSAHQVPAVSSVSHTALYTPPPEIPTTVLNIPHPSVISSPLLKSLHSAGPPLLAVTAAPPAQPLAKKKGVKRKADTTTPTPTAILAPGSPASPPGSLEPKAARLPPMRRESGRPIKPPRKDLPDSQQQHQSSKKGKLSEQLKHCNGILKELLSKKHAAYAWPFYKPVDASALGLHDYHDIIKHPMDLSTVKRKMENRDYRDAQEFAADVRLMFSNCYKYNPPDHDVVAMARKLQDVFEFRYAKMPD
Chain of BRD3(1,2) (Q15059 24-416 limits assumed): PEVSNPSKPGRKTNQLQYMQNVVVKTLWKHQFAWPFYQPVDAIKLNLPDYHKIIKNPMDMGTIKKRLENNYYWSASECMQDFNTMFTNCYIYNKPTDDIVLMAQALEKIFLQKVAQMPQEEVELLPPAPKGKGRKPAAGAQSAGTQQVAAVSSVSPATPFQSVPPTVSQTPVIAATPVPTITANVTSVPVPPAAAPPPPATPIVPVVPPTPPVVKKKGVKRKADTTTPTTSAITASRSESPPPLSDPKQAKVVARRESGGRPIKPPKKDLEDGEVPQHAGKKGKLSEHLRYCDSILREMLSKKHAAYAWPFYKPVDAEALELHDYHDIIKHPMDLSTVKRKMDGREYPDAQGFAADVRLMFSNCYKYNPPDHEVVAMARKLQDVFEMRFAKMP

COc1cc(C#N)ccc1S(=O)(=O)Nc1ccc2c(c1)cc(C)c(=O)n2C [NIC57]
Kd [1]: 108 nM
Kd [2]: > 30000 nM
Kd [3]: 9400 nM
HATs Activity (%) ([4]; 1µM): 104%
HATs Activity (%) ([4]; 10µM): 104%
Kd [5]: 12000 nM
Kd [6]: > 30000 nM
Kd [7]: 5900 nM
Kd [8]: 31 nM
HATs Activity (%) ([9]; 1µM): 100%
HATs Activity (%) ([9]; 10µM): 96%
Kd [10]: 12000 nM
Kd [11]: 998 nM
HATs Activity (%) ([12]; 1µM): 98%
HATs Activity (%) ([12]; 10µM): 99%
Kd [13]: > 30000 nM
HATs Activity (%) ([14]; 1µM): 94%
HATs Activity (%) ([14]; 10µM): 93%
Kd [15]: 15000 nM
Kd [16]: 4900 nM
Kd [17]: > 30000 nM
Kd [18]: 46 nM
Kd [19]: > 30000 nM
Kd [20]: 7200 nM
Kd [21]: 3300 nM
synergy with BAY-876 [22]: no synergy
HATs Activity (%) ([23]; 1µM): 96%
HATs Activity (%) ([23]; 10µM): 91%

COc1ccccc1S(=O)(=O)Nc1ccc2c(c1)CN(C)C(=O)N2 [PFI-1]
Kd [24]: 85 nM
anti-proliferative effect (confluency) [25]: strong anti-proliferative effects
Kd [26]: 108 nM
HATs Activity (%) ([4]; 1µM): 102%
HATs Activity (%) ([4]; 10µM): 93%
Kd [27]: 221 nM
viability in combination with BAY-876 [28]: significant decrease in viability
Kd [29]: 144 nM
HATs Activity (%) ([9]; 1µM): 96%
HATs Activity (%) ([9]; 10µM): 93%
HATs Activity (%) ([12]; 1µM): 105%
HATs Activity (%) ([12]; 10µM): 86%
HATs Activity (%) ([14]; 1µM): 99%
HATs Activity (%) ([14]; 10µM): 100%
Kd [30]: 80 nM
Kd [31]: 76 nM
HATs Activity (%) ([23]; 1µM): 101%
HATs Activity (%) ([23]; 10µM): 95%

COc1ccccc1C(=O)Nc1cc2c(cc1N1CCCC1)n(C)c(=O)n2C [PFI-4]
synergy with BAY-876 [22]: no significant effect
